According to patent US12291515B2, “Pyrrolidine derivative and use thereof” (Rushi Biotech (Hangzhou) Co., Ltd, priority 2021, dated 2025):

Legend:
Assay type in all cases: cell-based
[1] = system: Human lung adenocarcinoma cell A549; assay: CCK-8 cell proliferation assay, A549; conditions: A549 cells, CCK-8, 24 hrs with drug, OD 450 nm
Procedure: (§1) The effect of samples on the proliferation of human tumor cells in vitro was determined by CCK-8 cell proliferation assay.
(§2) The cells were assayed through a method including the following steps:
(§3) 1) The cells were digested, counted, and prepared into a cell suspension in a corresponding culture medium (Table 1) (5×10^4 cells/ml for CFPAC-1 and RPMI 8226, and 3.5×10^4 cells/ml for rest cells). The cell suspension was added to each well of a 96-well plate in 100 μl well.
(§4) 2) Then the 96-well plate was incubated for 24 hrs in an incubator at 37° C. and 5% CO2.
(§5) 3) The drug was diluted with the culture medium to the required working concentration. 100 μl of the corresponding drug containing medium was added to each well. A negative control group (added with drug-free culture medium) was also set.
(§6) 4) Then the 96-well plate was incubated for 24 hrs in an incubator at 37° C. and 5% CO2.
(§7) 5) The 96-well plate was stained with CCK-8, and The OD value was determined at λ=450 nm.
(§8) a) 10 μl of CCK-8 was added to each well, and incubated in the incubator for another 2-3 hrs.
(§9) b) The content was mixed uniformly by shaking gently on a shaker for 10 min, and the bubbles in the 96-well plate were removed.
(§10) 6) The inhibition rate in each group was calculated.

[2] = system: Human hepatoma cell HepG2; assay: CCK-8 cell proliferation assay, HepG2; conditions: HepG2 cells, CCK-8, 24 hrs with drug, OD 450 nm
Procedure: as §1, §2, §3, §4, §5, §6, §7, §8, §9, §10

[3] = system: Human esophageal cancer cell TE-1; assay: CCK-8 cell proliferation assay, TE-1; conditions: TE-1 cells, CCK-8, 24 hrs with drug, OD 450 nm
Procedure: as §1, §2, §3, §4, §5, §6, §7, §8, §9, §10

[4] = system: Human gastric cancer cell MKN45; assay: CCK-8 cell proliferation assay, MKN-45; conditions: MKN-45 cells, CCK-8, 24 hrs with drug, OD 450 nm
Procedure: as §1, §2, §3, §4, §5, §6, §7, §8, §9, §10

[5] = system: Human colon cancer cell HCT-116; assay: CCK-8 cell proliferation assay, HCT116; conditions: HCT116 cells, CCK-8, 24 hrs with drug, OD 450 nm
Procedure: as §1, §2, §3, §4, §5, §6, §7, §8, §9, §10

[6] = system: Human multiple myeloma cell RPMI 8226; assay: CCK-8 cell proliferation assay, RPMI8226; conditions: RPMI8226 cells, CCK-8, 24 hrs with drug, OD 450 nm
Procedure: as §1, §2, §3, §4, §5, §6, §7, §8, §9, §10

[7] = system: Human pancreatic cancer cell CFPAC-1; assay: CCK-8 cell proliferation assay, CFPAC-1; conditions: CFPAC-1 cells, CCK-8, 24 hrs with drug, OD 450 nm
Procedure: as §1, §2, §3, §4, §5, §6, §7, §8, §9, §10

IC50 [1]	IC50 [2]	IC50 [3]	IC50 [4]	IC50 [5]	IC50 [6]	IC50 [7]	SMILES
31 nM	69 nM	76 nM	57 nM	33 nM	17 nM	28 nM	O=C(NCCCCCC1CCN(C(=O)c2ccccc2)C1)Nc1ccncc1 (centres unmarked) [BSS-TP007, 1-(5-(1-(benzoyl)pyrrolidin-3-yl)pentyl)-2-(4-pyridinyl)urea]
55 nM	51 nM	58 nM	43 nM	77 nM	33 nM	22 nM	O=C(NCCCCCC1CCN(C(=O)c2cccs2)C1)Nc1ccncc1 (centres unmarked) [BSS-TP008, 1-(5-(1-(2-thienylformyl)pyrrolidin-3-yl)pentyl)-2-(4-pyridinyl)urea]
29 nM	46 nM	49 nM	63 nM	21 nM	26 nM	39 nM	COc1cccc(OC)c1C(=O)N1CCC(CCCCCNC(=O)Nc2ccncc2)C1 (centres unmarked) [BSS-TP009, 1-(5-(1-(2,6-dimethoxybenzoyl)pyrrolidin-3-yl)pentyl)-2-(4-pyridinyl) urea]
36 nM	41 nM	42 nM	34 nM	25 nM	20 nM	38 nM	O=C(NCCCCCC1CCN(C(=O)c2ccc[nH]2)C1)Nc1ccncc1 (centres unmarked) [BSS-TP010, 1-(5-(1-(2-pyrrolylformyl)pyrrolidin-3-yl)pentyl)-2-(4-pyridinyl)urea]
33 nM	77 nM	81 nM	36 nM	71 nM	32 nM	29 nM	O=C(NCCCCCC1CCN(C(=O)c2ccco2)C1)Nc1ccncc1 (centres unmarked) [BSS-TP011, 1-(5-(1-(furoyl)pyrrolidin-3-yl)pentyl)-2-(4-pyridinyl)urea]
67 nM	124 nM	137 nM	59 nM	51 nM	30 nM	38 nM	O=C(NCCCCCC1CCN(C(=O)C2CCCO2)C1)Nc1ccncc1 (centres unmarked) [BSS-TP012, 1-(5-(1-(2-tetrahydrofurylformyl)pyrrolidin-3-yl)pentyl)-2-(4-pyridinyl)urea]
81 nM	133 nM	98 nM	73 nM	68 nM	45 nM	41 nM	O=C(NCCCCCC1CCN(C(=O)C2CCCS2)C1)Nc1ccncc1 (centres unmarked) [BSS-TP013, 1-(5-(1-(2-tetrahydrothienylformyl)pyrrolidin-3-yl)pentyl)-2-(4-pyridinyl)urea]
117 nM	89 nM	82 nM	91 nM	62 nM	50 nM	51 nM	O=C(NCCCCCC1CCN(C(=O)C2CCCN2)C1)Nc1ccncc1 (centres unmarked) [BSS-TP014, 1-(5-(1-(2-pyrrolidinylformyl)pyrrolidin-3-yl)pentyl)-2-(4-pyridinyl)urea]
31 nM	39 nM	57 nM	33 nM	43 nM	22 nM	28 nM	O=C(NCCCCCC1CCN(C(=O)c2ccccc2)C1)Nc1ccnc(F)c1 (centres unmarked) [BSS-TP015]
30 nM	59 nM	55 nM	46 nM	41 nM	30 nM	32 nM	COc1cccc(OC)c1C(=O)N1CCC(CCCCCNC(=O)Nc2ccnc(F)c2)C1 (centres unmarked) [BSS-TP016]
41 nM	77 nM	69 nM	55 nM	57 nM	42 nM	41 nM	O=C(NCCCCCC1CCN(C(=O)c2ccc[nH]2)C1)Nc1ccnc(F)c1 (centres unmarked) [BSS-TP017]
38 nM	61 nM	88 nM	39 nM	51 nM	38 nM	33 nM	O=C(NCCCCCC1CCN(C(=O)c2ccco2)C1)Nc1ccnc(F)c1 (centres unmarked) [BSS-TP018]
72 nM	85 nM	132 nM	71 nM	39 nM	44 nM	49 nM	O=C(NCCCCCC1CCN(C(=O)c2cccs2)C1)Nc1ccnc(F)c1 (centres unmarked) [BSS-TP019]
93 nM	49 nM	91 nM	52 nM	47 nM	33 nM	34 nM	O=C(NCCCCCC1CCN(C(=O)C2CCCN2)C1)Nc1ccnc(F)c1 (centres unmarked) [BSS-TP020]
33 nM	42 nM	65 nM	65 nM	77 nM	42 nM	31 nM	O=C(NCCCCCC1CCN(C(=O)c2ccccc2)C1)Nc1cc(F)nc(F)c1 (centres unmarked) [BSS-TP021]
53 nM	72 nM	102 nM	76 nM	69 nM	42 nM	46 nM	O=C(NCCCCCC1CCN(C(=O)c2ccccc2)C1)Nc1cccnc1 (centres unmarked) [BSS-TP023, 1-(5-(1-(benzoyl)pyrrolidin-3-yl)pentyl)-2-(3-pyridinyl)urea]
59 nM	74 nM	111 nM	81 nM	73 nM	49 nM	39 nM	O=C(NCCCCCC1CCN(C(=O)c2cccs2)C1)Nc1cccnc1 (centres unmarked) [BSS-TP024, 1-(5-(1-(2-thienylformyl)pyrrolidin-3-yl)pentyl)-2-(3-pyridinyl)urea]
62 nM	77 nM	65 nM	53 nM	54 nM	40 nM	37 nM	O=C(NCCCCCC1CCN(C(=O)c2cc3ccccc3[nH]2)C1)Nc1ccncc1 (centres unmarked) [BSS-TP025, 1-(5-(1-(2-indolylformyl)pyrrolidin-3-yl)pentyl)-2-(4-pyridinyl)urea]
69 nM	83 nM	72 nM	71 nM	92 nM	51 nM	42 nM	O=C(NCCCCCC1CCN(C(=O)c2cc3ccccc3o2)C1)Nc1ccncc1 (centres unmarked) [BSS-TP026, 1-(5-(1-(2-benzofurylformyl)pyrrolidin-3-yl)pentyl)-2-(4-pyridinyl)urea]
88 nM	102 nM	93 nM	65 nM	92 nM	55 nM	59 nM	O=C(NCCCCCC1CCN(C(=O)C2Cc3ccccc3O2)C1)Nc1ccncc1 (centres unmarked) [BSS-TP027, 1-(5-(1-(2-benzotetrahydrofurylformyl)pyrrolidin-3-yl)pentyl)-2-(4-pyridinyl)urea]
41 nM	59 nM	57 nM	44 nM	63 nM	42 nM	31 nM	O=C(NCCCCCC1CCN(C(=O)c2ccco2)C1)Nc1cccnc1 (centres unmarked) [BSS-TP028, 1-(5-(1-(furoyl)pyrrolidin-3-yl)pentyl)-2-(3-pyridinyl)urea]
42 nM	63 nM	60 nM	57 nM	62 nM	46 nM	40 nM	O=C(NCCCCCC1CCN(C(=O)c2occc2F)C1)Nc1ccncc1 (centres unmarked) [BSS-TP030]
59 nM	51 nM	68 nM	45 nM	53 nM	39 nM	33 nM	O=C(NCCCCCC1CCN(C(=O)c2[nH]ccc2F)C1)Nc1ccncc1 (centres unmarked) [BSS-TP031]
